Assay results as given in patent US20240309360A1, “TRANS-ACTIVATORS AND METHODS AND USE THEREOF” (THE GOVERNING COUNCIL OF THE UNIVERSITY OF TORONTO, priority 2021, published 2024).

How the values were obtained:
[1] = system: EGFP reporter (7×TetO array, basal CMV promoter) in HEK293T reporter cell line; assay: TAD-seq pooled activation screen of 60-aa fragments fused to PYL1; format: cell-based, human; settings: for Hit high GFP: high GFP population (top 1%); for logFC high GFP / logFC medium GFP: log 2 fold change of counts, 100 μM ABA 48 hours; for logFC high GFP: sorted high GFP cells (top 1%) vs unsorted cells; for logFC medium GFP: sorted medium GFP cells (top 2-5%) vs unsorted cells; for Hit medium GFP: medium GFP population (top 2-5%)
Method in brief: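 60-aa tiles at 20-aa steps from 75 activator proteins, C-terminally fused to PYL1, lentivirally transduced at low MOI into reporter cells co-expressing ABI-dCas9 and promoter gRNA. Recruitment induced with 100 μM abscisic acid for 48 h (DMSO control). Top 1% and next 4% GFP cells sorted; fragments quantified by sequencing, two replicates.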

[2] = system: EGFP reporter (7×TetO array, basal CMV promoter) in HEK293T reporter cell line; assay: Arrayed recruitment assay, PYL1 fusions individually recruited to reporter via ABI1-dCas9 with ABA; format: cell-based, human; design: key to independently validated as transactivating fragment: Fragments marked with * were independently validated; settings: for activation of the EGFP reporter when individually tested: PYL1 fusion, ABA 48 hours, flow cytometry; for independently validated as transactivating fragment: fragment fused to PYL1, arrayed format
Source text: Treatment of cells with abscisic acid (ABA) induces an interaction between ABI1 and PYL1, thereby recruiting the potential transcriptional activator to a specific genomic locus defined by the guide RNA (gRNA). As a reporter, a HEK293T cell line that contains a stably integrated construct with a 7×TetO array and a basal CMV promoter driving the expression of EGFP was used (Gao et al., 2016). A monoclonal cell line that expresses ABI1-dCas9 and a single gRNA targeting TetO was generated by lentiviral infection.
Arrayed recruitment assays. Reporter cells stably co-expressing ABI-dCas9 and TetO gRNA were seeded either on 48-well or 96-well plates (Sarstedt) to reach 50-70% confluency on the day of transfection. 150 ng of each construct to be tested was transfected with polyethylenimine (PEI) at a ratio of 0.6 μl reagent. The day after transfection, recruitment was induced by treatment with ABA (100 μM). […] Inhibitors were dissolved in DMSO to a stock concentration of 10 mM. The final concentrations used were 100 nM for flavopiridol, 300 nM for JQ1, 1 μM for A-485, 2.5 μM for CX-4945 and 3 μM for AZ191. All inhibitors were a kind gift from the Structural Genomics Consortium (SGC). 48 hours after induction, cells were dissociated and resuspended in flow buffer using a liquid handing robot (TECAN) and analyzed by LSR Fortessa (BD). Cells were gated on high EBFP2 and RFP as a measure of gRNA and transfection control, respectively. Flow cytometry data was analyzed using FlowJo (v10).

| Substance | enrichment compared to the unsorted fragment library ([1]; high GFP and medium GFP populations) | Hit high GFP [1] | logFC high GFP [1] | logFC medium GFP [1] | activation of the EGFP reporter when individually tested [2] | independently validated as transactivating fragment [2] | Hit medium GFP [1] |
| --- | --- | --- | --- | --- | --- | --- | --- |
| VP64: synthetic transactivator, four tandem copies of the viral VP16 transactivation motif (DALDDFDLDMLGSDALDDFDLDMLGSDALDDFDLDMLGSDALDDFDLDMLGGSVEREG; listed as Homo sapiens) [reference compound] | enriched in the high GFP population but depleted in the medium GFP population | hit | 5.476 | 2.374 | robust induction of GFP |  |  |
| p300: known transcriptional activator p300 fused to PYL1 [reference compound] |  |  |  |  | robust induction of GFP |  |  |
| C3orf62-12: 60-aa TAD-seq fragment of C3orf62 (QDSPFKEEAWALLMDKSPQKATDADPGSLKQAFDDHNIVETVLDLEEDYNVMTSFKYQIE; listed as Homo sapiens) [Fragment C3orf62-12] |  | hit | 6.493 | −0.6067 |  | 12* |  |
| YAF2-7: 60-aa TAD-seq fragment of YAF2 (SHKKTRPRLKNVDRSSAQHLEVTVGDLTVIITDFKEKTKSPPASSAASADQHSQSGSSSD; listed as Homo sapiens) |  | hit | 4.987 | 1.828 |  | YAF2-7* | hit |
| ATF6-2: 60-aa TAD-seq fragment of ATF6 (HRLDEDWDSALFAELGYFTDTDELQLEAANETYENNFDNLDFDLDLVPWESDIWDINNQI; listed as Homo sapiens) |  | hit | 4.688 | 1.477 |  | ATF6-2* | hit |
| ATXN7L3-1: 60-aa TAD-seq fragment of ATXN7L3 (MKMEEMSLSGLDNSKLEAIAQEIYADLVEDSCLGFCFEVHRAVKCGYFFLDDTDPDSMKD; listed as Homo sapiens) |  | hit | 1.638 | 1.684 |  | 1* | hit |
| ZXDC-12: 60-aa TAD-seq fragment of ZXDC (SPAEQHGAQDTELSAGTGNFYLESGGSARTDYRAIQLAKEKKQRGAGSNAGASQSTQRKI; listed as Homo sapiens) |  | hit | 3.966 | 2.496 |  | ZXDC-12* | hit |
| CITED1-8: 60-aa TAD-seq fragment of CITED1 (ESLSPSAGAQSPAIIDSDPVDEEVLMSLVVELGLDRANELPELWLGQNEFDFTADFPSSC; listed as Homo sapiens) |  | hit | 6.826 | −1.166 |  | 8* |  |
| CBX2: CBX-C domain of CBX2 (SASPPSTGQNPSVSVQTSQDWKPTRSLIEHVFVTDVTANLITVTVKESPTSVGFFNLRHY; listed as Homo sapiens) |  |  |  |  | the most potent activator |  |  |
| SERTAD1-10: 60-aa TAD-seq fragment of SERTAD1 (IDTSMYDNELWAPASEGLKPGPEDGPGKEEAPELDEAELDYLMDVLVGTQALERPPGPGR; listed as Homo sapiens) |  |  | 0.2349 | 0.8385 |  |  | hit |
| SPDYE4-4: 60-aa TAD-seq fragment of SPDYE4 (SEEELEEELELERAPEPEDTWVVETLCGLKMKLKRKRASSVLPEHHEAFNRLLGDPVVQK; listed as Homo sapiens) |  | hit | 4.316 | 1.914 |  |  | hit |
| CBX8: CBX-C domain of CBX8 (RPSLIARIPVARILGDPEEESWSPSLTNLEKVVVTDVTSNFLTVTIKESNTDQGFFKEKR; listed as Homo sapiens) |  |  |  |  | activated the reporter weakly |  |  |
| JAZF1-1: 60-aa TAD-seq fragment of JAZF1 (MTGIAAASFFSNTCRFGGCGLHFPTLADLIEHIEDNHIDTDPRVLEKQELQQPTYVALSY; listed as Homo sapiens) |  |  | 0.2848 | 0.6639 |  |  | hit |
| YAF2-6: 60-aa TAD-seq fragment of YAF2 (EKKDKVEKEKSEKETTSKKNSHKKTRPRLKNVDRSSAQHLEVTVGDLTVIITDFKEKTKS; listed as Homo sapiens) |  | hit | 4.316 | 1.771 |  |  | hit |
| NEUROD1-6: 60-aa TAD-seq fragment of NEUROD1 (LRRMKANARERNRMHGLNAALDNLRKVVPCYSKTQKLSKIETLRLAKNYIWALSEILRSG; listed as Homo sapiens) |  |  | 0.6708 | 0.9533 |  |  | hit |
| HSF1-24: 60-aa TAD-seq fragment of HSF1 (SGKQLVHYTAQPLFLLDPGSVDTGSNDLPVLFELGEGSYFSEGDGFAEDPTISLLTGSEP; listed as Homo sapiens) |  |  | 0.6763 | 0.8092 |  |  | hit |
| BRD8-23: 60-aa TAD-seq fragment of BRD8 (KEECFRSGVAEAPVGSKAPSIDGKEELDLAEKMDIAVSYTGEELDFETVGDIIAIIEDKV; listed as Homo sapiens) |  |  | 0.5884 | 0.5915 |  |  | hit |
| NPAS4-34: 60-aa TAD-seq fragment of NPAS4 (PLGGLEPLDSNLSLSGAGPPVLSLDLKPWKCQELDFLADPDNMFLEETPVEDIFMDLSTP; listed as Homo sapiens) |  |  | 0.946 | 0.9186 |  |  | hit |
| YAF2: YAF2_RYBP domain of YAF2; same SEQ ID NO as YAF2-7 (SHKKTRPRLKNVDRSSAQHLEVTVGDLTVIITDFKEKTKSPPASSAASADQHSQSGSSSD; listed as Homo sapiens) |  |  |  |  | robustly activated the reporter |  |  |
| RELB-3: 60-aa TAD-seq fragment of RELB (SSLSLAVSRSTDELEIIDEYIKENGFGLDGGQPGPGEGLPRLVSRGAASLSTVTLGPVAP; listed as Homo sapiens) |  | hit | 1.768 | 1.803 |  |  | hit |
| HSF1-21: 60-aa TAD-seq fragment of HSF1 (MLSSHGFSVDTSALLDLFSPSVTVPDMSLPDLDSSLASIQELLSPQEPPRPPEAENSSPD; listed as Homo sapiens) |  |  | 0.432 | 0.8992 |  |  | hit |
| HOXB2: HOX family transcription factor tested as PYL1 fusion |  |  |  |  | characterized as activators |  |  |
| ZXDC-16: 60-aa TAD-seq fragment of ZXDC (SLVVPSGGRPGPAPAAGVQCGAQGVQVQLVQDDPSGEGVLPSARGPATFLPFLTVDLPVY; listed as Homo sapiens) |  |  | 0.4785 | 0.7293 |  |  | hit |
| KLF15-6: 60-aa TAD-seq fragment of KLF15 (GPVAWGPWRRAAAPVKGEHFCLPEFPLGDPDDVPRPFQPTLEEIEEFLEENMEPGVKEVP; listed as Homo sapiens) |  | hit | 2.467 | 1.202 |  |  | hit |
